Reference: patent publication US6472348B1, “Pyridone derivatives and herbicides” (Kumiai Chemical Industry Co., Ltd., priority 1996, dated 2002)

Legend:
corn (Ze) = experiment: Test Example 11: crop plant selectivity by upland field foliage treatment (corn), phytotoxicity; settings: upland field foliage treatment, dose 1.6 g ai/10a, 14th day after treatment
Experimental: (§1) (Test on Crop Plant Selectivity by Upland Field Foliage Treatment)
(§2) In a plastic pot (surface area: 600 cm^2) filled with sand, corn (Ze), pale smartweed (Po), slender amaranth (Am), common lambsquarters (Ch) and China jute (Ab) were sown and cultured in a green house for 2 weeks. […] The plants were then cultured in a green house, and the evaluation of the herbicidal effects and phytotoxicity was conducted on the 14th day after the treatment in accordance with the standards as identified in Table 47.

slender amaranth (Am) [1] = experiment: Test Example 11: crop plant selectivity by upland field foliage treatment (corn), herbicidal effects; format: in vivo; set-up: scale not given here; settings: upland field foliage treatment (corn test), dose 1.6 g ai/10a, 14th day after treatment
Experimental: as §1, §2

[2] = test system: common lambsquarters (Ch); experiment: as above; format: in vivo; set-up: scale not given here; settings: upland field foliage treatment (corn test), dose 1.6 g ai/10a, 14th day after treatment
Experimental: as §1, §2

pale smartweed (Po) [3] = experiment: as above; format: in vivo; set-up: scale not given here; settings: upland field foliage treatment (corn test), dose 1.6 g ai/10a, 14th day after treatment
Experimental: as §1, §2

China jute (Ab) [4] = experiment: as above; format: in vivo; set-up: scale not given here; settings: upland field foliage treatment (corn test), dose 1.6 g ai/10a, 14th day after treatment
Experimental: as §1, §2

wheat (Tr) = experiment: Test Example 9: crop plant selectivity by upland field foliage treatment (wheat), phytotoxicity; settings: dose 1.6 g ai/10a, 14th day after treatment;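 further: grade of crop injury; 5 = at least 90%; 4 = 70 to 90%; 3 = 50 to 70%; 2 = 30 to 50%; 1 = 10 to 30%; 0 = under 10%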
Method in brief: (§3)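 Seeds of wheat, pale smartweed, slender amaranth, common lambsquarters and China jute are sown in sand and grown 2 weeks under glass. Foliage is then treated, culture resumes in the greenhouse, and damage is graded on the 14th day.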

slender amaranth (Am) [5] = experiment: Test Example 9: crop plant selectivity by upland field foliage treatment (wheat), herbicidal effects; format: in vivo; set-up: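 grade of growth control; 5 = at least 90%; 4 = 70 to 90%; 3 = 50 to 70%; 2 = 30 to 50%; 1 = 10 to 30%; 0 = under 10%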; settings: dose 1.6 g ai/10a, 14th day after treatment
Method in brief: as §3

[6] = test system: common lambsquarters (Ch); experiment: as above; format: in vivo; set-up: scale not given here; settings: dose 1.6 g ai/10a, 14th day after treatment
Method in brief: as §3

pale smartweed (Po) [7] = experiment: as above; format: in vivo; set-up: scale not given here; settings: dose 1.6 g ai/10a, 14th day after treatment
Method in brief: as §3

China jute (Ab) [8] = experiment: as above; format: in vivo; set-up: scale not given here; settings: dose 1.6 g ai/10a, 14th day after treatment
Method in brief: as §3

slender amaranth (Am) [9] = experiment: Test Example 2: herbicidal effects by upland field soil treatment; format: in vivo; settings: 100 g of the active ingredient per 10 ares, evaluated on the 21st day after application;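 further: grade of growth control; 5 = at least 90%; 4 = 70 to 90%; 3 = 50 to 70%; 2 = 30 to 50%; 1 = 10 to 30%; 0 = under 10%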
Source text: (§4) (Test on Herbicidal Effects by Upland Field Soil Treatment)

[10] = test system: common lambsquarters (Ch); experiment: as above; format: in vivo; settings: 100 g of the active ingredient per 10 ares, evaluated on the 21st day after application
Source text: as §4

barnyardgrass (Ec) [11] = experiment: as above; format: in vivo; settings: 100 g of the active ingredient per 10 ares, evaluated on the 21st day after application
Source text: as §4

Digitaria ciliaris (Di) = experiment: as above; format: in vivo; settings: 100 g of the active ingredient per 10 ares, evaluated on the 21st day after application;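 further: grade of growth control; 5 = at least 90%; 4 = 70 to 90%; 3 = 50 to 70%; 2 = 30 to 50%; 1 = 10 to 30%; 0 = under 10%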
Source text: as §4

pale smartweed (Po) [12] = experiment: as above; format: in vivo; settings: 100 g of the active ingredient per 10 ares, evaluated on the 21st day after application
Source text: as §4

rice flatsedge (Ci) [13] = experiment: as above; format: in vivo; settings: 100 g of the active ingredient per 10 ares, evaluated on the 21st day after application
Source text: as §4

monochoria (Mo) = experiment: Test Example 1: herbicidal effects by paddy field soil treatment; format: in vivo; settings: 100 g of the active ingredient per 10 ares, 21st day after the application, index 0-5 of Table 47;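 further: grade of growth control; 5 = at least 90%; 4 = 70 to 90%; 3 = 50 to 70%; 2 = 30 to 50%; 1 = 10 to 30%; 0 = under 10%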
Method in brief: (§5)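 Herbicidal effect was scored against a graded standard 21 days after treatment. Seeds were sown in puddled, leveled paddy soil flooded to 3 cm depth, and the active ingredient was applied at 100 g per 10 ares before greenhouse culture.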

barnyardgrass (Ec) [14] = experiment: as above; format: in vivo; settings: 100 g of the active ingredient per 10 ares, 21st day after the application, index 0-5 of Table 47
Method in brief: as §5

bulrush (Sc) = experiment: as above; format: in vivo; settings: 100 g of the active ingredient per 10 ares, 21st day after the application, index 0-5 of Table 47
Method in brief: as §5

slender amaranth (Am) [15] = experiment: Test Example 3: herbicidal effects by upland field foliage treatment; format: in vivo; set-up: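 grade of growth control; 5 = at least 90%; 4 = 70 to 90%; 3 = 50 to 70%; 2 = 30 to 50%; 1 = 10 to 30%; 0 = under 10%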; settings: 100 g active ingredient per 10 ares, evaluated 14th day after treatment
Method in brief: (§6)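 Test plants had been raised from seed for 2 weeks in a greenhouse, in soil-covered sand pots of 120 cm^2, and were returned there after spraying.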

[16] = test system: common lambsquarters (Ch); experiment: as above; format: in vivo; set-up: scale not given here; settings: 100 g active ingredient per 10 ares, evaluated 14th day after treatment
Method in brief: as §6

barnyardgrass (Ec) [17] = experiment: as above; format: in vivo; set-up: scale not given here; settings: 100 g active ingredient per 10 ares, evaluated 14th day after treatment
Method in brief: as §6

Diaitaria ciliaris (Di) = experiment: as above; format: in vivo; set-up: scale not given here; settings: 100 g active ingredient per 10 ares, evaluated 14th day after treatment
Method in brief: as §6

pale smartweed (Po) [18] = experiment: as above; format: in vivo; set-up: scale not given here; settings: 100 g active ingredient per 10 ares, evaluated 14th day after treatment
Method in brief: as §6

rice flatsedge (Ci) [19] = experiment: as above; format: in vivo; set-up: scale not given here; settings: 100 g active ingredient per 10 ares, evaluated 14th day after treatment
Method in brief: as §6

C#CC(C)Oc1cc(-c2ccc(C(F)(F)F)n(C)c2=O)c(Cl)cc1Cl (stereo not drawn) [1-31]
2: Phytotoxicity Ze (corn (Ze)) | Phytotoxicity Tr (wheat (Tr))
5: Herbicidal effects Am (slender amaranth (Am) [1]) | Herbicidal effects Ch [2] | Herbicidal effects Po (pale smartweed (Po) [3]) | Herbicidal effects Ab (China jute (Ab) [4]) | Herbicidal effects Am (slender amaranth (Am) [5]) | Herbicidal effects Ch [6] | Herbicidal effects Po (pale smartweed (Po) [7]) | Herbicidal effects Ab (China jute (Ab) [8])

Cn1c(C(F)(F)F)ccc(-c2cc3c(cc2F)OCC(=O)N3CC#N)c1=O [Compound 2-17]
2: Phytotoxicity Ze (corn (Ze))
5: Herbicidal effects Am (slender amaranth (Am) [9]) | Herbicidal effects Ch [10] | Herbicidal effects Ec (barnyardgrass (Ec) [11]) | Herbicidal effects Di (Digitaria ciliaris (Di)) | Herbicidal effects Po (pale smartweed (Po) [12]) | Herbicidal effects Ci (rice flatsedge (Ci) [13]) | Herbicidal effects Mo (monochoria (Mo)) | Herbicidal effects Ec (barnyardgrass (Ec) [14]) | Herbicidal effects Sc (bulrush (Sc)) | Herbicidal effects Am (slender amaranth (Am) [1]) | Herbicidal effects Ch [2] | Herbicidal effects Po (pale smartweed (Po) [3]) | Herbicidal effects Ab (China jute (Ab) [4]) | Herbicidal effects Am (slender amaranth (Am) [15]) | Herbicidal effects Ch [16] | Herbicidal effects Ec (barnyardgrass (Ec) [17]) | Herbicidal effects Di (Diaitaria ciliaris (Di)) | Herbicidal effects Po (pale smartweed (Po) [18]) | Herbicidal effects Ci (rice flatsedge (Ci) [19])
